Laboratory results published in US11708413B2 (priority 2016, dated 2023).
pIC50: −log10 of the molar value.

Legend:
OPM-2 (MM) cells = assay: Cell killing assay (cell proliferation, Cell Titer-Glo), OPM-2 (MM); type: cell-based; conditions: Homo sapiens, 72 hrs, NK = no killing
Protocol: (§1) Cell lines tested included B-lymphoma, multiple myeloma, and leukemia cells.
(§2) Cytotoxicity effects of the free drug linkers and conjugates were measured with a cell proliferation assay. A total of 12500 cells in a volume of 25 μl were seeded in a 384-well flat bottom white polystyrene plate on the day of assay. Free drug-linkers and conjugates were formulated at 2× starting concentration (1000 nM for free drug linkers and 100 nM for ADCs) in RPMI medium and filtered through MultiScreen HTS 96-Well Filter Plates (Millipore). Filter sterilized samples were serial diluted (1:3) under sterile conditions and added into treatment wells. Plates were cultured at 37° C. in a CO2 incubator for 72 hrs. For cell viability measurement, 30 μl of Cell Titer-Glo® reagent (Promega Corp.) was added into each well, and plates processed as per product instructions. Relative luminescence was measured on an ENVISION® plate reader (Perkin-Elmer; Waltham, Mass.). Relative luminescence readings were converted to % viability using untreated cells as controls. Data was fitted with non-linear regression analysis, using log(inhibitor) vs. response, variable slope, 4 parameter fit equation using GraphPad Prism. Data was expressed as % relative cell viability vs. dose of free drug-linker or conjugate in nM.
(§3) Each of Conjugates A-F was evaluated for the ability to bind and kill cells expressing CD74. […]

RPMI-6666 (HL) cells = assay: cells; type: cell-based; conditions: Homo sapiens; RPMI-6666 (HL) cells; 72 hrs, Cell Titer-Glo; NK = no killing; read-out: Cell Killing Activity IC50
Protocol: as §1, §2, §1

BDCM (AML) cells = assay: cells; type: cell-based; conditions: BDCM (AML) cells; 72 hrs, Cell Titer-Glo; NK = no killing; read-out: Cell Killing Activity IC50
Protocol: as §1, §2, §1

JVM-13 (CLL) cells = assay: cells; type: cell-based; conditions: JVM13; JVM-13 (CLL) cells; 72 hrs, Cell Titer-Glo; NK = no killing; read-out: Cell Killing Activity IC50
Protocol: as §1, §2, §1

ARD (MM) cells = assay: cells; type: cell-based; conditions: ARD (MM) cells, 72 hrs, Cell Titer-Glo, NK = no killing
Protocol: as §1, §2, §1

SUP-B15 (ALL) cells = assay: cells; type: cell-based; conditions: Homo sapiens; SUP-B15 (ALL) cells; 72 hrs, Cell Titer-Glo; NK = no killing; read-out: Cell Killing Activity IC50
Protocol: as §1, §2, §1

RPMI-8226 (MM) cells = assay: cells; type: cell-based; conditions: Homo sapiens; RPMI-8226 (MM) cells; 72 hrs, Cell Titer-Glo; NK = no killing; read-out: Cell Killing Activity IC50
Protocol: as §1, §2
Each of Conjugates A-F was evaluated for the ability to bind and kill cells expressing CD74. Cell lines tested included B-lymphoma, multiple myeloma, and leukemia cells. Controls included unconjugated anti-CD74 antibody.

K562 (CML) cells = assay: Cell killing assay (cell proliferation, Cell Titer-Glo), K562 (CML); type: cell-based; conditions: Homo sapiens, 72 hrs, NK = no killing
Protocol: as §1, §2, §3

SU-DHL-6 (NHL) cells = assay: cells; type: cell-based, human; conditions: Homo sapiens; SU-DHL-6 (NHL) cells; 72 hrs, Cell Titer-Glo; NK = no killing; read-out: Cell Killing Activity IC50
Protocol: as §1, §2, §1

Compound `COc1cc2cc(c1Cl)N(C)C(=O)C[C@H](OC(=O)[C@H](C)N(C)C(=O)CCCC(=O)N(C)CCOCCOCCOCCOCCC(=O)NCCC(=O)N1Cc3ccccc3C#Cc3ccccc31)[C@]1(C)O[C@H]1[C@H](C)[C@@H]1C[C@@](O)(NC(=O)O1)[C@H](OC)/C=C/C=C(/C)C2` [Free Linker-Drug, DBCO-PEG4-maytansine, reference compound] has a pIC50 (OPM-2 (MM) cells) of 7.62, a pIC50 (RPMI-6666 (HL) cells) of about 7.89 and a pIC50 (BDCM (AML) cells) of 7.89. For the same compound, the pIC50 (JVM-13 (CLL) cells) was 7.60, the “Cell Killing Activity Span” value (ARD (MM) cells) was 40% and the pIC50 (ARD (MM) cells; read-out: Cell Killing Activity IC50) was about 7.47. The pIC50 (SUP-B15 (ALL) cells) was 7.96, the pIC50 (RPMI-8226 (MM) cells) was 7.74 and the pIC50 (K562 (CML) cells) was 7.22. The pIC50 (SU-DHL-6 (NHL) cells) was 7.82.
